In patent US20190054045A1, “METHODS AND COMPOSITIONS FOR TREATING SKIN CONDITIONS” (priority 2017, published 2019):

What was measured:
[1] = test system: surgical defect; assay: Topical metformin to treat scarring on open skin (surgical defect, patient case); assay type: in vivo, human; conditions: topical ointment 250 mg/mL twice a day; within 4 weeks; in comparison to patients healing with topical petrolatum alone; observation by physician
Procedure: A patient with a previous surgical scar from removal of skin cancer with a scalpel received topical metformin ointment at 250 mg/mL with directions to apply the ointment twice a day to the surgical defect until healed (approximately 2-4 weeks).

[2] = test system: burn scar; assay: Topical metformin to treat a burn scar on intact skin (patient case); assay type: in vivo, human; conditions: 250 mg/mL in petrolatum ointment, two times per day
Procedure: A patient with a burn scar from a previously treated skin cancer complaining of a raised red and itchy scar on their chest received topical metformin in petrolatum ointment at 250 mg/mL with directions to apply the lotion to the affected area (red, raised fibrotic scarred skin on chest) two times per day.

With `CN(C)C(=N)N=C(N)N` [metformin] as the compound, how does the “scarring and redness of area” value [1] read?
The value was “minimal scaring and redness”.

What about the “scarring of the skin” value ([2]; after one month) of the same compound?
The value was “further improved”.

What about the “scarring of the skin (redness, itch, softness)” value ([2]; within 14 days, observation by physician and patient) of the same compound?
Its value is “visibly reduced with less redness, itch, and increased softness”.
